Results reported in PubChem BioAssay AID651630 (Sanford-Burnham Center for Chemical Genomics, 2012).
The source made the active and inactive calls.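 How the source made its calls: active means lipid-stain IC50 at or below a set limit, with nuclear-stain toxicity IC50 at least five times higher; inactive means the rest.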

Experiments:
[1] = test system: DAPI; assay: TAG lipid buildup inhibition with viability readout – cell-based, panel, Nile Red and DAPI fluorescence, H9c2, dose response (AID 651630); settings: H9c2 cells, DAPI nuclear fluorescence (cytotoxicity counter-readout), oleic acid;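 further: cells exposed to compound overnight before fixation and staining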
[2] = test system: TAG; assay: as above; settings: H9c2 cells, Nile Red TAG fluorescence, oleic acid

Compound	IC50 cytotoxicity (DAPI nuclear signal decrease) ([1]; mean of runs)	IC50 cytotoxicity (DAPI nuclear signal decrease) ([1]; run 1) [µM]	IC50 cytotoxicity (DAPI nuclear signal decrease) ([1]; run 2) [µM]	IC50 ([2]; mean of runs)	IC50 ([2]; run 1) [µM]	IC50 ([2]; run 2) [µM]
CC(C)=CCC/C(C)=C/CNC(=O)C[C@H]1C[C@H](C(=O)N2CCCCC2)[C@@]2(CCc3ccccc3)c3[nH]c4cc(-c5ccco5)ccc4c3CCN2C1=O	> 25 µM (inactive)	> 25	> 25	9.94 µM	10.5	9.42
Cn1cc(CN2CCC(C(=O)NC(c3ccc(F)cc3)c3ccc4ccccc4n3)CC2)c2ccccc21 (stereo unspecified)	13.7 µM (inactive)	14.5	13	10.3 µM	9.38	11.2
C[C@@]12C(=O)Nc3ccc(Br)cc3C(=O)N1[C@H]1c3cc(Cl)ccc3OC[C@@H]1[C@@H]2c1ccccc1	> 25 µM (inactive)	> 25	> 25	14.6 µM	9.4	19.8
CCC(=O)Nc1nonc1-c1nc2ccccc2n1Cc1cccc2ccccc12	> 25 µM (inactive)	> 25	> 25	> 25 µM (inactive)	> 25	> 25
O=C(Nc1cccc(-c2csc(Nc3ccc(Cl)cc3)n2)c1)c1cccc(C(F)(F)F)c1	> 25 µM (inactive)	> 25	> 25	15.2 µM (inactive)	13.6	16.7
Cc1onc(-c2ccccc2)c1C(=O)Nc1cc(C(F)(F)F)ccc1N1CCOCC1	> 25 µM (inactive)	> 25	> 25	20.1 µM (inactive)	15.4	24.8
CSC1=NC(C(Cl)(Cl)Cl)N=C(c2ccc(C)cc2)N1 (stereo unspecified)	> 25 µM (inactive)	> 25	> 25	> 25 µM (inactive)	> 25	> 25
Cc1ccc(C(=O)NCCN2C3=NC[C@H](C(C)C)N3C[C@H]2Cc2ccc(O)cc2)cc1Br	> 25 µM (inactive)	> 25	> 25	16.8 µM (inactive)	16.9	16.7
Cc1ccc(NC(=S)N(CCCN2CCCC2)Cc2cccn2Cc2ccc(Cl)cc2)cc1Cl		> 25	23.1	> 25 µM (inactive)	> 25	> 25
CCN(CC)CCNc1ncnc2c1sc1nc(N3CCCC3)c3c(c12)CC(C)(C)OC3	> 25 µM (inactive)	> 25	> 25	18 µM (inactive)	16.9	19.1
Cc1cc(C)c2nc(-c3ccncc3)cc(C(=O)N3CCN(Cc4ccccc4Cl)CC3)c2c1	> 25 µM (inactive)	> 25	> 25	12.1 µM	14.2	10.1
COc1ccc(OC)c(Nc2nc(-c3sc(NC(=O)CC(C)C)nc3C)cs2)c1	> 25 µM (inactive)	> 25	> 25	14.1 µM	12.9	15.3
CCCCc1ccc(N=N/C(C(=O)Nc2cc(OC)c(NC(C)=O)cc2OC)=C(/C)O)cc1	> 25 µM (inactive)	> 25	> 25	10.1 µM	11.4	8.79
O=C(NCCCCCCCN1CCCCCCC1)C(C1CCCCC1)C1CCCCC1	> 25 µM (inactive)	> 25	> 25	17.8 µM (inactive)	15.9	19.7
COc1ccc(CC(N)c2csc(NC(=O)NCc3ccccc3)n2)cc1 (stereo unspecified)	> 25 µM (inactive)	> 25	> 25	17.9 µM (inactive)	20.2	15.5
O=C(c1cnn2c1NC(c1ccc(Br)cc1)CC2C(F)(F)F)N1CCN(C23CC4CC(CC(C4)C2)C3)CC1 (stereo unspecified)	> 25 µM (inactive)	> 25	> 25	> 25 µM (inactive)	> 25	> 25
COc1ccc(CCNc2nnc(Sc3nnnn3-c3ccccc3)s2)cc1OC	> 25 µM (inactive)	> 25	> 25		10.3	> 25
NC(Cc1ccc(F)cc1)c1csc(Nc2ccc(C(F)(F)F)cn2)n1 (stereo unspecified)		> 25	23.8		> 25	8.35
CCC(C)(C)NC(=O)C(c1ccc(OC)cc1)N(CC1CCCO1)C(=O)CCC(=O)Nc1cc(C)on1 (stereo unspecified)	> 25 µM (inactive)	> 25	> 25	7.02 µM	8.17	5.88
COC(=O)C1=C(c2cc3ccccc3s2)C[C@@H]2CC[C@H]1N2C(=O)N1CCOCC1	> 25 µM (inactive)	> 25	> 25	> 25 µM (inactive)	> 25	> 25
CC1(c2ccccc2)CC(C)(C)N(C(=O)c2cc([N+](=O)[O-])cc([N+](=O)[O-])c2)c2ccccc21 (stereo unspecified)	> 25 µM (inactive)	> 25	> 25	9.21 µM	10.4	7.99
O=c1cc(N2CCN(c3cccc(Cl)c3)CC2)[nH]c(=O)n1C1CCCCC1		18.2	> 25	3.47 µM	5.5	1.44
Cc1cc(C)nc(NC(=NCCc2c[nH]c3ccccc23)NC(=O)Nc2ccc(Cl)c(Cl)c2)n1	> 25 µM (inactive)	> 25	> 25	10.2 µM	8.52	11.8
C=CCC[C@@H](Cc1ccc(F)cc1)C(=O)OC[C@@H](NC(=O)[C@@H](CC=C)CC(=O)N[C@H](CO)Cc1ccccc1)C(C)(C)C	> 25 µM (inactive)	> 25	> 25	9.45 µM	8.65	10.2
CCCCC(=NCCc1c(C)[nH]c2ccc(OC)cc12)C1=C(O)CC(c2ccccc2)CC1=O (stereo unspecified)	> 25 µM (inactive)	> 25	> 25		16.1	> 25
O=C(c1ccoc1)N1CCN(c2cc(-c3ccncc3)nc3cc(-c4cccc(Cl)c4)nn23)CC1	> 25 µM (inactive)	> 25	> 25		> 25	23.6
O=C1C(Cl)=C(NCc2ccco2)C(=O)c2ccccc21	> 25 µM (inactive)	> 25	> 25	> 25 µM (inactive)	> 25	> 25
COc1cccc(-c2cc(C(=O)Nc3ccc(N(C)C(C)=O)cc3)c3cc(Br)ccc3n2)c1	> 25 µM (inactive)	> 25	> 25	12.3 µM	11.7	12.9
CCCC[C@H](CN[C@@H](CNC)[C@H](C)CC)NCCC12CCC(CC1)C2		17.8	> 25	> 25 µM (inactive)	> 25	> 25
